Peptide text beside a SMILES is read from it.
Legend:
hMC4-R [1] = molecular target: T1, hMC4-R (Homo sapiens (Human), UniProt P32245); assay: Competitive binding assay using Eu-NDP-α-MSH; settings: Eu-NDP-α-MSH (values marked *); averaged; read-out: MC4-R Ki
Experimental: Alternatively, a competitive inhibition binding assay was performed employing Eu-NDP-α-MSH (PerkinElmer Life Sciences catalog No. AD0225) with determination by time-resolved fluorometry (TRF) of the lanthanide chelate. […] After incubation for 90 minutes at 37° C., the reaction was stopped by filtration over AcroWell 96-well filter plates (Pall Life Sciences). The filter plates were washed 4 times with 200 μL of ice-cold phosphate-buffered saline. DELFIA Enhancement solution (PerkinElmer Life Sciences) was added to each well. […] Each assay was conducted in duplicate and mean values were utilized. Ki values were determined by curve-fitting with Graph-Pad Prism® software using a one-site fixed-slope competition binding model.

[2] = Induction of penile erection in male rats; type: in vivo, rat; settings: for induction of penile erection: male Sprague-Dawley rats, 60 minute observation, No. 154 as trifluoracetic acid salt, No. 155 as acetate salt
Description: Each dose group contained six or seven animals, with video observation for sixty minutes following administration.

hMC4-R [3] = molecular target: T1, hMC4-R; assay: Assay for agonist activity (cAMP accumulation, HEK-293 cells expressing hMC4-R); settings: agonist = intrinsic activity 70% or higher; partial agonist 10-70%
Experimental: By “intrinsic activity” is meant the maximal functional activity achievable by a compound in a specified melanocortin receptor expressing cell system, such as the maximal stimulation of adenylyl cyclase.
Accumulation of intracellular cAMP was examined as a measure of the ability of the peptides of the present invention to elicit a functional response in HEK-293 cells that express MC4-R. Confluent HEK-293 cells that express recombinant hMC4-R were detached from culture plates by incubation in enzyme-free cell dissociation buffer. Dispersed cells were suspended in Earle's Balanced Salt Solution containing 10 mM HEPES (pH 7.5), 1 mM MgCl2, 1 mM glutamine, 0.5% albumin and 0.3 mM 3-isobutyl-1-methyl-xanthine (IBMX), a phosphodiesterase inhibitor. […] Cells were exposed for 15 minutes at 37° C. to peptides of the present invention dissolved in DMSO (final DMSO concentration of 1%) at a concentration range of 0.05-5000 nM in a total assay volume of 200 μL. […] Data analysis was performed by nonlinear regression analysis with Graph-Pad Prism® software. The maximum efficacies of the test peptides of the present invention were compared to that achieved by the reference melanocortin agonist NDP-αMSH.

hMC4-R [4] = molecular target: T1, hMC4-R; assay: Competitive inhibition binding assay using [I125]-NDP-α-MSH; settings: [I125]-NDP-α-MSH (unmarked values); averaged; read-out: MC4-R Ki
Experimental: A competitive inhibition binding assay is performed using membrane homogenates prepared from HEK-293 cells that express recombinant hMC4-R, hMC3-R, or hMC5-R, and from B-16 mouse melanoma cells (containing endogenous MC1-R). In some instances, HEK-293 cells that express recombinant hMC1-R were employed. In the examples that follow, all MC3-R, MC4-R and MC5-R values are for human recombinant receptors. […] Membrane homogenates were incubated with 0.2 nM (for hMC4-R) 0.4 nM (for MC3-R and MC5-R) or 0.1 nM (for mouse B16 MC1-R or hMC1-R) [I^125]-NDP-α-MSH (Perkin Elmer) and increasing concentrations of test peptides of the present invention in buffer containing 25 mM HEPES buffer (pH 7.5) with 100 mM NaCl, 2 mM CaCl2, 2 mM MgCl2, 0.3 mM 1,10-phenanthroline, and 0.2% bovine serum albumin. After incubation for 60 minutes at 37° C., the assay mixture was filtered and the membranes washed three times with ice-cold buffer. Filters were dried and counted in a gamma counter for bound radioactivity. […] Maximal specific binding (100%) was defined as the difference in radioactivity (cpm) bound to cell membranes in the absence and presence of 1 μM NDP-α-MSH. […] Each assay was conducted in triplicate and the actual mean values are described, with results less than 0% reported as 0%. Ki values for test peptides of the present invention were determined using Graph-Pad Prism® curve-fitting software.

[5] = Rat feeding study: food intake and body weight change; type: in vivo; settings: for effect on food intake and rate of change in body weight: rat feeding studies, 0.3 and 1 mg/kg, bremelanotide as positive control; for decrease in food consumption compared to control: rat
Experimental: Change in food intake and body weight was evaluated for selected peptides administered by intravenous (IV) or subcutaneous injection routes. Male Sprague-Dawley rats were obtained from Hilltop Lab Animals, Inc. (Scottsdale, Pa.) or other vendors. Animals were individually housed in conventional polystyrene hanging cages and maintained on a controlled 12 hour on/off light cycle. Water and pelleted food was provided ad libitum. The rats were dosed IV with vehicle or selected peptides (0.3 to 1.0 mg/kg), or dosed subcutaneously with vehicle or selected peptides (doses up to 30 mg/kg). The changes in body weight and food intake for the 24 hour period after dosing was determined. The changes in body weight and food intake for the 48 hour and 72 hour periods after dosing can also be measured to determine reversal of changes in body weight and food intake effects back to baseline levels.

[6] = 1 mg/kg, 0-2, 0-4 and 0-20 hour periods

T1 sequence (P32245 whole entry): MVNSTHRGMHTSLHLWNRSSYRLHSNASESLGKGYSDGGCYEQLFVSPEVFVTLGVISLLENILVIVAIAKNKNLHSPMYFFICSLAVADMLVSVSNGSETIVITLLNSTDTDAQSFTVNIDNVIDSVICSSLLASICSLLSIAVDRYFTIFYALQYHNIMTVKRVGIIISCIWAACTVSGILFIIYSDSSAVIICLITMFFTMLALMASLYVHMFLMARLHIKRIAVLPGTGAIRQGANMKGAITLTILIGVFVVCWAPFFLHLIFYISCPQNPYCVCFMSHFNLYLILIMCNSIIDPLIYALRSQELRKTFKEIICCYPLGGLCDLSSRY

## CC(=O)N[C@@H](CCCNC(=N)N)C(=O)N[C@H]1CC(=O)NCCCC[C@@H](C(N)=O)NC(=O)[C@H](Cc2c[nH]c3ccccc23)NC(=O)[C@H](CCCNC(=N)N)NC(=O)[C@@H](Cc2ccccc2)NC(=O)[C@H](CCNC(=O)CN)NC1=O [compound 94, Ac-Arg-cyclo(Asp-Dab(Glycly)-D-Phe-Arg-Trp-Lys)-NH2]
hMC4-R [1]
  Ki: 110 nM

## CC(=O)N[C@@H](CCCNC(=N)N)C(=O)N[C@H]1CC(=O)NCCCC[C@@H](C(N)=O)NC(=O)[C@H](Cc2c[nH]c3ccccc23)NC(=O)[C@H](CCCNC(=N)N)NC(=O)[C@@H](Cc2ccccc2)NC(=O)[C@H](CCC(N)=O)NC1=O [Peptide No. 32, Ac-Arg-cyclo(Asp-Gln-D-Phe-Arg-Trp-Lys)-NH2]
[2]; rat, subcutaneous, doses of 1, 3 or 10 mg/kg
  observed spontaneous erections: increase in observed spontaneous erections
hMC4-R [3]
  functional classification at MC4-R (agonist / partial agonist): agonist

## CC(=O)N[C@@H](CCCNC(=N)N)C(=O)N[C@H]1CCCC(=O)NCC[C@@H](C(N)=O)NC(=O)[C@H](Cc2c[nH]c3ccccc23)NC(=O)[C@H](CCCNC(=N)N)NC(=O)[C@@H](Cc2ccccc2)NC(=O)[C@H](CCN)NC1=O [compound 127, Ac-Arg-cyclo(hGlu-Dab-D-Phe-Arg-Trp-Dab)-NH]
hMC4-R [3]
  functional classification at MC4-R (agonist / partial agonist): agonist

## CC(=O)N[C@@H](CCCNC(=N)N)C(=O)N[C@H]1CCNC(=O)CCC[C@@H](C(N)=O)NC(=O)[C@H](Cc2c[nH]c3ccccc23)NC(=O)[C@H](CCCNC(=N)N)NC(=O)[C@@H](Cc2ccccc2)NC(=O)[C@H](CCN)NC1=O [compound 136, Ac-Arg-cyclo(Dab-Dab-D-Phe-Arg-Trp-hGlu)-OH]
hMC4-R [4]
  Ki: 35 nM

## CC(=O)N[C@@H](CCCNC(=N)N)C(=O)N[C@H]1CC(=O)NCCCC[C@@H](C(N)=O)NC(=O)[C@H](Cc2c[nH]c3ccccc23)NC(=O)[C@H](CCCNC(=N)N)NC(=O)[C@@H](Cc2ccccc2)NC(=O)[C@H](C(C)C)NC1=O [Peptide No. 16, Ac-Arg-cyclo(Asp-Val-D-Phe-Arg-Trp-Lys)-NH2]
[5]
  effect on food intake and rate of change in body weight: reduce food intake and decrease the rate of change in body weight
[5]; 0.3 mg/kg, 0-2 and 0-4 hour periods
  decrease in food consumption compared to control: statistically significant
[5]; [6]
  decrease in food consumption compared to control: statistically significant
hMC4-R [3]
  functional classification at MC4-R (agonist / partial agonist): partial agonist

## CC(=O)N[C@@H](CCCNC(=N)N)C(=O)N[C@H]1CCNC(=O)CCC[C@@H](C(N)=O)NC(=O)[C@H](Cc2c[nH]c3ccccc23)NC(=O)[C@H](CCCNC(=N)N)NC(=O)[C@@H](Cc2ccccc2)NC(=O)[C@H](CCN)NC1=O [compound 129, Ac-Arg-cyclo(Dab-Dab-D-Phe-Arg-Trp-hGlu)-NH2]
hMC4-R [3]
  functional classification at MC4-R (agonist / partial agonist): agonist

## CC(=O)N[C@@H](CCCNC(=N)N)C(=O)N[C@H]1CC(=O)NCCCC[C@@H](C(N)=O)NC(=O)[C@H](Cc2c[nH]c3ccccc23)NC(=O)[C@H](CCCNC(=N)N)NC(=O)[C@@H](Cc2ccccc2)NC(=O)[C@H](CCN)NC1=O [compound 141, Ac-Cit-cyclo(Asp-Dab-D-Phe-Arg-Trp-Lys)-NH2]
hMC4-R [4]
  Ki: 9 nM

## CC(=O)N[C@@H](CCCNC(=N)N)C(=O)N[C@H]1CCCCNC(=O)C[C@@H](C(N)=O)NC(=O)[C@H](Cc2c[nH]c3ccccc23)NC(=O)[C@H](CCCNC(=N)N)NC(=O)[C@@H](Cc2ccccc2)NC(=O)[C@H](CC(N)=O)NC1=O [compound 155, Ac-Arg-cyclo(Lys-Asn-D-Phe-Arg-Trp-Asp)-NH2] (HELM PEPTIDE1{[ac].R.K.N.[dF].R.W.D.[am]}$PEPTIDE1,PEPTIDE1,3:R3-8:R3$$$V2.0)
[2]; subcutaneous
  induction of penile erection: robustly induce a penile erection

## CC(=O)N[C@@H](CCCNC(=N)N)C(=O)N[C@H]1CCCC(=O)NCC[C@@H](C(N)=O)NC(=O)[C@H](Cc2c[nH]c3ccccc23)NC(=O)[C@H](CCCNC(=N)N)NC(=O)[C@@H](Cc2ccccc2)NC(=O)[C@H](Cc2c[nH]cn2)NC1=O [compound 126, Ac-Arg-cyclo(hGlu-His-D-Phe-Arg-Trp-Dab)-NH2]
hMC4-R [3]
  functional classification at MC4-R (agonist / partial agonist): agonist

## CC(=O)N[C@H](CCCNC(=N)N)C(=O)N[C@H]1CCCNC(=O)CC[C@@H](C(N)=O)NC(=O)[C@H](Cc2c[nH]c3ccccc23)NC(=O)[C@H](CCCNC(=N)N)NC(=O)[C@@H](Cc2ccccc2)NC(=O)[C@H](Cc2c[nH]cn2)NC1=O [compound 98, Ac-D-Arg-cyclo(Orn-His-D-Phe-Arg-Trp-Glu)-NH2]
hMC4-R [1]
  Ki: 4 nM

## CC(=O)N[C@@H](CCCNC(=N)N)C(=O)N[C@H]1CC(=O)NCCCC[C@@H](C(N)=O)NC(=O)[C@H](Cc2c[nH]c3ccccc23)NC(=O)[C@H](CCCNC(=N)N)NC(=O)[C@@H](Cc2ccccc2)NC(=O)[C@H](Cc2c[nH]cn2)NC1=O [Peptide No. 1, Ac-Arg-cyclo(Asp-His-D-Phe-Arg-Trp-Lys)-NH2]
[5]
  effect on food intake and rate of change in body weight: reduce food intake and decrease the rate of change in body weight
[5]; 0.3 mg/kg, 0-2, 0-4 and 0-20 hour periods
  decrease in food consumption compared to control: statistically significant
[5]; [6]
  decrease in food consumption compared to control: statistically significant
[2]; rat, IV, doses of 0.3 or 1 mg/kg
  observed spontaneous erections compared to vehicle: statistically significant increase
hMC4-R [3]
  functional classification at MC4-R (agonist / partial agonist): agonist

## CC(=O)N[C@@H](CCCNC(=N)N)C(=O)N[C@H]1CCCNC(=O)CC[C@@H](C(N)=O)NC(=O)[C@H](Cc2c[nH]c3ccccc23)NC(=O)[C@H](CCCNC(=N)N)NC(=O)[C@@H](Cc2ccccc2)NC(=O)[C@H](CC(N)=O)NC1=O [compound 154, Ac-Arg-cyclo(Orn-Asn-D-Phe-Arg-Trp-Glu)-NH2]
[2]; subcutaneous
  induction of penile erection: robustly induce a penile erection

## CC(=O)N[C@@H](CCCNC(=N)N)C(=O)N[C@H]1CCNC(=O)CCC[C@@H](C(N)=O)NC(=O)[C@H](Cc2c[nH]c3ccccc23)NC(=O)[C@H](CCCNC(=N)N)NC(=O)[C@@H](Cc2ccccc2)NC(=O)[C@H](Cc2c[nH]cn2)NC1=O [compound 128, Ac-Arg-cyclo(Dab-His-D-Phe-Arg-Trp-hGlu)-NH2]
hMC4-R [3]
  functional classification at MC4-R (agonist / partial agonist): agonist

From US9458201B2, “Melanocortin receptor-specific heptapeptides” (Palatin Technologies, Inc., priority 2009, dated 2016)
